# Assay results from publication PMC11742080, “Decavanadate Compound Displays In Vitro and In Vivo Antitumor Effect on Melanoma Models” (Bioinorganic Chemistry and Applications, 2025).
# What was measured:
# [1] = system: IGR37 human melanoma cells; experiment: MTT cell viability assay, IGR37; format: cell-based
# Description: (§1) The MTT assay was first described as a sensitive, quantitative, and reliable colorimetric assay to measure the viability, proliferation, and activation of cells. Cell viability was assessed at 24 and 72 h of treatment to evaluate cytotoxicity and the effect on cell proliferation of the decavanadate compound, respectively. The concentrations of the decavanadate compound have been determined by weighing the compound in its crystal form and then solubilizing it in distilled water.
# (§2) All cell lines were seeded in 96-well plates (Nunc, Roskilde, Denmark) at a density of 10^4 cells per well and were incubated overnight, before treatment with different concentrations of the decavanadate compound. After 24 or 72 h of treatment, fresh media solution containing MTT at 0.5 mg/mL was added to cells and incubated for 3 h at 37°C. The formed formazan crystals were then dissolved in DMSO, and the absorbance was measured at 560 nm using a BioTek EON Microplate Spectrophotometer (Fisher Scientific). Cell viability was expressed as a percentage of the viable cell number of the untreated cells (control [CTR]).
# (§3) The concentration of the decavanadate compound required for 50% growth inhibition (IC50 value) was estimated as resulting in a 50% decrease in absorbance, compared to the CTR.
# [2] = system: IGR39 human melanoma cells; experiment: MTT cell viability assay, IGR39; format: cell-based
# Description: as §1, §2, §3
# [3] = system: IGR39 human melanoma cells; experiment: Cell adhesion assay (collagen, fibronectin, poly-L-lysine); format: cell-based
# Description: Adhesion assays were performed as previously described by Morjen et al.. Briefly, flat-bottom 96-well microtiter plates were coated for 2 h at 37°C with fibronectin or collagen at 10 μg/mL, as extracellular matrix (ECM) proteins, or poly-L-lysine at 50 μg/mL, as a nonspecific attachment substrate. Plates were then washed with PBS and blocked by BSA. IGR39 cells were harvested and resuspended in DMEM, in the presence or absence (CTR) of the tested molecule. After incubation for 30 min at room temperature, cells were added to coated wells in a volume of 50 μL (50,000 cells) and allowed to adhere to the substrate for 1 h at 37°C. Unattached cells were removed by gently washing three times with an adhesion buffer. Residual attached cells were fixed by 1% glutaraldehyde, stained by 0.1% crystal violet, and lysed with 1% SDS. The absorbance was then measured at 600 nm by a microplate reader.
# [4] = system: IGR39 human melanoma cells; experiment: Wound healing (scratch) cell migration assay; format: cell-based; settings: 24 h treatment
# Description: Wound healing (or scratch) assay is a method to measure two-dimensional cell migration. An artificial gap is generated on a confluent cell monolayer, and the movement is tracked via microscopy or other imaging. Melanoma cells were seeded in 24-well plates at 15 × 10^4 cells per well and incubated for 24–48 h. After cells reached 90% confluence, wounds were generated using a 10 μL micropipette tip. Media were removed, and the cells were washed with 500 μL PBS and then incubated in a fresh medium containing different concentrations (not showing cytotoxic effect) of the decavanadate compound. After 24 h of treatment, cells were washed with PBS, fixed with cold ethanol, and stained with Giemsa. Images were acquired on an inverted microscope at T0 and after 24 h (T24). The percentage of cell migration was calculated using the following formula: cell migration(%)=[(T0 − T24))/(T0)] × 100 where T0 is the wound area at zero time and T24 is the wound area after 24 h. All the pictures were taken with a DM-IRE microscope (Leica, Rueil-Malmaison, France) coupled with a digital camera (CCD camera CoolSNAP FX, Princeton Instruments, Trenton, NJ).
# [5] = system: DMBA/croton oil-induced skin lesions in Swiss albino mice; experiment: Chemical-induced (DMBA/croton oil) lesion model in mice; format: in vivo; settings: cotreatment, 2.5 mg/kg s.c.
# Description: Two days before the beginning of the experiment, we selected 32 male Swiss albino mice and clipped the hair on their backs in a 2 × 2 cm^2 area. The design of the experiment was performed as reported by Vähätupa et al. (Figure S1). The animals were randomly divided into […] (8 animals in each group): • i. CTR− group: represented the negative CTR group, where mice received 100 μL of acetone only. • ii. CTR+ group: served as the positive CTR group, where mice were treated […] with a single dose of DMBA (50 μg/100 μL acetone) on the shaven area on their backs. Seven days later, croton oil (50 μL/100 μL acetone) was applied twice a week until the end of the experiment (6 weeks). • iii. CT group (cotreatment group): animals received a single dose of DMBA (50 μg/100 μL acetone) on the shaven area on their backs. Seven days later, croton oil (50 μL/100 μL acetone) was applied twice. Then, mice received croton oil and 2.5 mg/kg of the decavanadate compound (dissolved in PBS) by subcutaneous injection on their backs. The Mg2Na2V10O28·20H2O compound was given to animals 15 min after each croton oil application from the third week until the sixth week (the end of the protocol).
# [6] = system: B16-F10 allografted C57BL/6 mice; experiment: B16-F10 melanoma allograft model in mice; format: in vivo
# Description: The syngeneic transplantation model of melanoma, developed in this study, has been widely used for preclinical testing and offers the advantages of relative ease of use, fast turnaround time, and low cost. A total of 30 male C57BL/6 strain mice were previously adapted to animal facility conditions. The design of the experiment was performed as represented in Figure S2. At the start of the experiment, the backs of the mice were shaved. The mice were divided into four groups: • i. CTR− group: negative CTR group containing 6 mice. This group was injected with a solution of PBS by the subcutaneous route in the dorsal region. • ii. CTR+ group: positive CTR group containing 8 mice. In this group, the mice were subcutaneously injected once with 10^5 B16-F10 cells in the dorsal region at the beginning of the experiment. Four mice were sacrificed after 21 days, and the other 4 mice were sacrificed at the end of the experiment after 31 days. • iii. Cotreatment (CT) group: CT group containing 8 mice. This group was subcutaneously injected with 10^5 B16-F10 cells in the dorsal region and injected simultaneously with 2.5 mg/kg of decavanadate (Mg2Na2V10O28·20H2O), subcutaneously for 21 days of the experiment. All the mice were sacrificed after 21 days. • iv. Post-treatment (PT) group: PT group containing 8 mice. This group was subcutaneously injected with 10^5 B16-F10 cells in the dorsal region. After 21 days, each mouse of this group received a dose of 2.5 mg/kg of decavanadate (Mg2Na2V10O28·20H2O), as a treatment for 10 days. For this group, animals were sacrificed on the 31st day. The experimental design scheme is illustrated in Figure S2.
substance,measurement,setting,value
dimagnesium disodium decavanadate icosahydrate [Mg2Na2V10O28·20H2O],IC50,"[1]; IGR37, 24 h treatment",12.7 µM
same,IC50,"[1]; IGR37, 72 h treatment",1.4 µM
same,"IC50, cell viability","[1]; IGR37, 72 h treatment",2 µg/mL
same,IC50,"[2]; IGR39, 24 h treatment",18 µM
same,IC50,"[2]; IGR39, 72 h treatment",5.2 µM
same,Inhibition of adhesion of IGR39 cells on fibronectin,[3]; 5 μg/mL,47%
same,"IC50, IGR39 cell attachment to collagen","[3]; collagen 10 μg/mL coating, 30 min pretreatment, 1 h adhesion",3.78 µg/mL
same,IC50,"[3]; collagen 10 μg/mL coating, 30 min pretreatment, 1 h adhesion, read-out: IC50, IGR39 cell attachment to collagen",2670 nM
same,Reduction of IGR39 cell attachment to collagen,[3]; highest concentration 5 μg/mL (3.5 μM),60%
same,Effect on adhesion of IGR39 cells to poly-L-lysine,"[3]; up to 5 μg/mL, nonspecific substrate",no effect
same,IC50,[4],2230 nM
same,"IC50, IGR39 cell migration",[4],3.16 µg/mL
same,Skin histology (dermal inflammatory infiltrate),[5],attenuation of this inflammatory state
same,Mortality and behavior in DMBA/croton oil-treated mice,[5]; 6-week protocol,neither mortality nor changes in the behavior
same,Inhibition of tumor development,"[6]; 2.5 mg/kg (50 μg), versus nontreated allografted mice",70%
same,Behavior of allografted mice,"[6]; cotreated, 2.5 mg/kg, compared to CTR− group",no change in the behavior
same,Tumor appearance at day 21,"[6]; cotreatment (CT) group, 2.5 mg/kg s.c. for 21 days",no skin changes
same,"Skin histology, cotreated mice","[6]; cotreatment (CT) group, 2.5 mg/kg, day 21",disappearance of melanoma
same,Average size of the tumor,"[6]; post-treatment (PT) group, 2.5 mg/kg for 10 days from day 21, day 31",8.2 mm
same,"Skin histology, post-treated mice","[6]; post-treatment (PT) group, 2.5 mg/kg, day 31",appearance of dermal melanoma associated with invasive nests of atypical discohesive melanocytes and dusty pigmentation
